Experimental data as given in patent publication US10752900B2, “Oligonucleotides for modulating gene expression and uses thereof” (BIOGENERA S.P.A., priority 2012, dated 2020).

Columns and labels:
MYCN gene [1] = assay: QT-PCR, MYCN mRNA in WiT49 cells; format: cell-based, human; conditions: Table 6
Procedure: For the purpose of assessing the ability of the oligonucleotides of the present invention to modulate the expression of the target genes, their ability to reduce the quantity of messenger RNA was analyzed using the Real-Time PCR technique. For this purpose, use was made of 24-well plates, which were seeded with 5.0×10^4 cells with 0.3 ml of OPTI-MEM (GIBCO BRL) medium, 4% FBS and 2 mM L-glutammine (experiments in triplicate) per well. The cells were incubated for 24 hours at 37° C., in an atmosphere containing 5% CO2 to permit adherence to the base of the wells. For each well, the oligonucleotides were analyzed at the following final concentrations: • the antisense oligonucleotides siRNA and siRNA gapmer (i.e. the oligonucleotides containing one or more monomers of chemically modified nucleic acids at the 3' or 5' end, while in the central portion they have monomers of nucleic acids that have not been modified or have been modified at the level of the phosphodiester bond as a phosphorothioate bond) were used at 200 nM; • the antisense oligonucleotides containing phosphorothioate DNA monomers, the RNA antigene oligonucleotides (agRNA) and the oligonucleotides containing DNA monomers and LNA monomers were used at 10 μM; • the morpholino oligonucleotides were used at a concentration of 1 μM, and • the PNA oligonucleotides were administered at a concentration of 1 μM. The cells were treated with the oligonucleotides, adding FBS up to 4% 6 hours after administration of the same. After 24 hours the total RNA was extracted from each well and purified using the RNeasy Mini Kit (QIAGEN). Assays were performed on 8 cell lines obtained from 5 different human tumours which are correlated with MYCN expression, i.e.: • as a neuroblastoma model use was made of the cell lines Kelly, IMR-32 (where the MYCN gene is amplified and superexpressed) and SKNBE2c and LAN1 (where the MYCN gene is amplified and superexpressed and the p53 gene is mutated); • as a rabdomiosarcoma model use was made of the cell line RH30, where the MYCN gene is amplified and superexpressed; • as a Wilms' tumour model use was made of the cell line WiT49, where the MYCN gene is amplified and superexpressed; • as a retinoblastoma model use was made of the cell line Y79, where the MYCN gene is amplified and superexpressed; and • as a model of small cell lung cancer use was made of the cell line H69 where the MYCN gene is amplified and superexpressed. As a control, use was made of the same cell lines as listed above treated with sterile water instead of oligonucleotides. Each RNA sample was quantified (in duplicate) using a NanoDrop ND-1000 spectrophotometer (NanoDrop Technologies). The first strand of cDNA was produced using the cDNA Synthesis Kit for RT-PCR (Roche). For the cDNA synthesis reaction a total of 1 μg of RNA was used. For the real-time PCR, 10 ng of cDNA in a final volume of 20 μl was used with SYBR Green Master Mix 2× (Applied Biosystems) (3 identical experiments were conducted in triplicate). Two housekeeping genes were used as positive controls: GAPDH and beta-actin (ACTB). The conditions of the QT-PCR reaction were: 10 min at 95° C., 20 sec at 95° C., and 30 sec at 60° C., for 50 cycles. The PNAs having SEQ ID NO: 1-12 were also tested on different cell lines which overexpress MYCN (Kelly, SKNBE2c, RH30, […] 1 and H69). The results are shown in Table 6 and confirm the selectivity and specificity of the inhibition effect of the PNAs on the product of protein translation of the MYCN gene.

MYCN gene [2] = assay: QT-PCR, MYCN mRNA in H69 cells; format: cell-based, human; conditions: Table 6
Procedure: For the purpose of assessing the ability of the oligonucleotides of the present invention to modulate the expression of the target genes, their ability to reduce the quantity of messenger RNA was analyzed using the Real-Time PCR technique.
For this purpose, use was made of 24-well plates, which were seeded with 5.0×10^4 cells with 0.3 ml of OPTI-MEM (GIBCO BRL) medium, 4% FBS and 2 mM L-glutammine (experiments in triplicate) per well.
The cells were incubated for 24 hours at 37° C., in an atmosphere containing 5% CO2 to permit adherence to the base of the wells.
For each well, the oligonucleotides were analyzed at the following final concentrations: • the antisense oligonucleotides siRNA and siRNA gapmer (i.e. the oligonucleotides containing one or more monomers of chemically modified nucleic acids at the 3′ or 5′ end, while in the central portion they have monomers of nucleic acids that have not been modified or have been modified at the level of the phosphodiester bond as a phosphorothioate bond) were used at 200 nM; • the antisense oligonucleotides containing phosphorothioate DNA monomers, the RNA antigene oligonucleotides (agRNA) and the oligonucleotides containing DNA monomers and LNA monomers were used at 10 μM; • the morpholino oligonucleotides were used at a concentration of 1 μM, and • the PNA oligonucleotides were administered at a concentration of 1 μM.
The cells were treated with the oligonucleotides, adding FBS up to 4% 6 hours after administration of the same. After 24 hours the total RNA was extracted from each well and purified using the RNeasy Mini Kit (QIAGEN).
Assays were performed on 8 cell lines obtained from 5 different human tumours which are correlated with MYCN expression, i.e.: • as a neuroblastoma model use was made of the cell lines Kelly, IMR-32 (where the MYCN gene is amplified and superexpressed) and SKNBE2c and LAN1 (where the MYCN gene is amplified and superexpressed and the p53 gene is mutated); • as a rabdomiosarcoma model use was made of the cell line RH30, where the MYCN gene is amplified and superexpressed; • as a Wilms' tumour model use was made of the cell line WiT49, where the MYCN gene is amplified and superexpressed; • as a retinoblastoma model use was made of the cell line Y79, where the MYCN gene is amplified and superexpressed; and • as a model of small cell lung cancer use was made of the cell line H69 where the MYCN gene is amplified and superexpressed.
As a control, use was made of the same cell lines as listed above treated with sterile water instead of oligonucleotides. Each RNA sample was quantified (in duplicate) using a NanoDrop ND-1000 spectrophotometer (NanoDrop Technologies). The first strand of cDNA was produced using the cDNA Synthesis Kit for RT-PCR (Roche). For the cDNA synthesis reaction a total of 1 μg of RNA was used. For the real-time PCR, 10 ng of cDNA in a final volume of 20 μl was used with SYBR Green Master Mix 2× (Applied Biosystems) (3 identical experiments were conducted in triplicate). Two housekeeping genes were used as positive controls: GAPDH and beta-actin (ACTB).
The conditions of the QT-PCR reaction were: 10 min at 95° C., 20 sec at 95° C., and 30 sec at 60° C., for 50 cycles.
The PNAs having SEQ ID NO: 1-12 were also tested on different cell lines which overexpress MYCN (Kelly, SKNBE2c, RH30, WiT49, WERI-Rb1 1 and H69). The results are shown in Table 6 and confirm the selectivity and specificity of the inhibition effect of the PNAs on the product of protein translation of the MYCN gene.
The oligonucleotides were tested in vitro (at a concentration of 2.5 μM) to determine their ability to inhibit the transcription of the gene they are directed against by measuring the levels of the gene messenger in cellular models in which the gene of interest is overexpressed. The methods used are the ones described in example 1. […]

| Substance | WiT49 % mRNA (MYCN gene [1]) [%] | H69 % mRNA (MYCN gene [2]) [%] |
| --- | --- | --- |
| SEQ ID NO: 2: PNA antigene oligonucleotide GGGTGGATGCGGGGGG directed against MYCN (PNA backbone, chemistry not fully specified) | 78 | 58 |
| SEQ ID NO: 9: PNA antigene oligonucleotide CCCTGCAGTCGGCGGG directed against MYCN (all peptide nucleic acid (PNA)) | 66 | 50 |
| SEQ ID NO: 7: PNA antigene oligonucleotide CGCGCTGGGTGGATGC directed against MYCN (all peptide nucleic acid (PNA)) | 70 | 55 |
| SEQ ID NO: 10: PNA antigene oligonucleotide CGGCCGCGGGCCGCCA directed against MYCN (PNA backbone, chemistry not fully specified) | 60 | 41 |
| SEQ ID NO: 1: PNA ATGCCGGGCATGATCT against MYCN; subject of patent EP 1618195, control sequence used for comparison (all peptide nucleic acid (PNA)) [reference compound] | 62 | 40 |
| SEQ ID NO: 8: PNA antigene oligonucleotide GTCTGGACGCGCTGGG directed against MYCN (all peptide nucleic acid (PNA)) | 72 | 56 |
| SEQ ID NO: 5: PNA antigene oligonucleotide GCTGGGTGGATGCGGG directed against MYCN (PNA backbone, chemistry not fully specified) | 69 | 54 |
| SEQ ID NO: 11: PNA antigene oligonucleotide GGGAACTGTGTTGGAG directed against MYCN (PNA backbone, chemistry not fully specified) | 60 | 41 |
| SEQ ID NO: 6: PNA antigene oligonucleotide TGGACGCGCTGGGTGG directed against MYCN (PNA backbone, chemistry not fully specified) | 68 | 55 |
| SEQ ID NO: 12: PNA antigene oligonucleotide TGTCTGGACGCGCTGG directed against MYCN (all peptide nucleic acid (PNA)) | 62 | 40 |
| SEQ ID NO: 3: PNA antigene oligonucleotide GATGCGGGGGGCTCCT directed against MYCN (PNA backbone, chemistry not fully specified) | 75 | 55 |
| SEQ ID NO: 4: PNA antigene oligonucleotide GTCGGCGGGAGGTAAG directed against MYCN (PNA backbone, chemistry not fully specified) | 73 | 55 |
